Experimental data published in ChEMBL document CHEMBL4715829, “Heterodimeric Rifampicin-Tobramycin conjugates break intrinsic resistance of Pseudomonas aeruginosa to doxycycline and chloramphenicol in vitro and in a Galleria mellonella in vivo model” (Eur J Med Chem, 2019).

Assays:
Pseudomonas aeruginosa [1] = assay: Antibacterial activity against Pseudomonas aeruginosa 260-97103 infected in Galleria mellonella larvae assessed as survival of larvae at 75 mg/kg treated at 3 hrs post-infection in presence of doxycycline and measured after 18 hrs relative to control; format: functional
Pseudomonas aeruginosa [2] = assay: Antibacterial activity against Pseudomonas aeruginosa 101243 assessed as potentiation of doxycycline-induced antibacterial activity by measuring doxycycline MIC at 9.8 uM incubated for 18 hrs in presence of doxycycline by broth microdilution assay (reference value: 4 ug/ml); format: functional
Pseudomonas aeruginosa [3] = assay: Antibacterial activity against Pseudomonas aeruginosa 101243 assessed as potentiation of chloramphenicol-induced antibacterial activity by measuring chloramphenicol MIC at 9.8 uM incubated for 18 hrs in presence of chloramphenicol by broth microdilution assay (reference value: 1 ug/ml); format: functional
Pseudomonas aeruginosa [4] = assay: Antibacterial activity against Pseudomonas aeruginosa 101885 assessed as potentiation of doxycycline-induced antibacterial activity by measuring doxycycline MIC at 9.8 uM incubated for 18 hrs in presence of doxycycline by broth microdilution assay (reference value: 64 ug/ml); format: functional
Pseudomonas aeruginosa [5] = assay: Antibacterial activity against Pseudomonas aeruginosa 101885 assessed as potentiation of chloramphenicol-induced antibacterial activity by measuring chloramphenicol MIC at 9.8 uM incubated for 18 hrs in presence of chloramphenicol by broth microdilution assay (reference value: 512 ug/ml); format: functional
Pseudomonas aeruginosa [6] = assay: Antibacterial activity against Pseudomonas aeruginosa 259-96918 assessed as potentiation of chloramphenicol-induced antibacterial activity by measuring chloramphenicol MIC at 9.8 uM incubated for 18 hrs in presence of chloramphenicol by broth microdilution assay (reference value: 1024 ug/ml); format: functional
Pseudomonas aeruginosa [7] = assay: Antibacterial activity against Pseudomonas aeruginosa 260-97103 assessed as potentiation of doxycycline-induced antibacterial activity by measuring doxycycline MIC at 9.8 uM incubated for 18 hrs in presence of doxycycline by broth microdilution assay (reference value: 16 ug/ml); format: functional
Pseudomonas aeruginosa [8] = assay: Antibacterial activity against Pseudomonas aeruginosa 91433 assessed as potentiation of doxycycline-induced antibacterial activity by measuring doxycycline MIC at 9.8 uM incubated for 18 hrs in presence of doxycycline by broth microdilution assay (reference value: 32 ug/ml); format: functional
Pseudomonas aeruginosa [9] = assay: Antibacterial activity against Pseudomonas aeruginosa 100036 assessed as fractional inhibitory concentration incubated for 18 hrs in presence of minocycline by broth microdilution assay; format: functional
Pseudomonas aeruginosa [10] = assay: Antibacterial activity against Pseudomonas aeruginosa 100036 assessed as fractional inhibitory concentration incubated for 18 hrs in presence of rifampicin by broth microdilution assay; format: functional
Pseudomonas aeruginosa [11] = assay: Antibacterial activity against Pseudomonas aeruginosa 259-96918 assessed as fractional inhibitory concentration incubated for 18 hrs in presence of minocycline by broth microdilution assay; format: functional
Pseudomonas aeruginosa [12] = assay: Antibacterial activity against Pseudomonas aeruginosa 262-101856 assessed as fractional inhibitory concentration incubated for 18 hrs in presence of minocycline by broth microdilution assay; format: functional
Pseudomonas aeruginosa [13] = assay: Antibacterial activity against Pseudomonas aeruginosa 264-101354 assessed as fractional inhibitory concentration incubated for 18 hrs in presence of rifampicin by broth microdilution assay; format: functional
Pseudomonas aeruginosa [14] = assay: Antibacterial activity against Pseudomonas aeruginosa 101885 assessed as fractional inhibitory concentration index incubated for 18 hrs in presence of tigecycline by broth microdilution assay; format: functional
Pseudomonas aeruginosa [15] = assay: Antibacterial activity against Pseudomonas aeruginosa 264-101354 assessed as fractional inhibitory concentration index incubated for 18 hrs in presence of rifampicin by broth microdilution assay; format: functional
Pseudomonas aeruginosa [16] = assay: Potentiation of doxycycline-induced antibacterial activity against wild type Pseudomonas aeruginosa PAO1 assessed as fold change in doxycycline MIC at <=9.8 uM incubated for 18 hrs in presence of doxycycline by broth microdilution assay; format: functional; details: dose microM <=9.8
Pseudomonas aeruginosa [17] = assay: Potentiation of chloramphenicol-induced antibacterial activity against Pseudomonas aeruginosa PAO750 harboring MexAB-OprM, MexCD-OprJ, MexEF-OprN, Mex JK, MexXY and the OM protein OpmH deletion mutant assessed as fold change in chloramphenicol MIC at <=9.8 uM incubated for 18 hrs in presence of chloramphenicol by broth microdilution assay; format: functional; details: dose microM <=9.8
Pseudomonas aeruginosa [18] = assay: Antibacterial activity against Pseudomonas aeruginosa 260-97103 infected in Galleria mellonella larvae assessed as survival of larvae at 75 mg/kg treated at 3 hrs post-infection in presence of chloramphenicol and measured after 18 hrs relative to control; format: functional
Pseudomonas aeruginosa [19] = assay: Potentiation of doxycycline-induced antibacterial activity against Pseudomonas aeruginosa 264-101354 assessed as fold change in doxycycline MIC at 9.8 uM incubated for 18 hrs in presence of doxycycline by broth microdilution assay relative to control; format: functional
Pseudomonas aeruginosa [20] = assay: Potentiation of doxycycline-induced antibacterial activity against Pseudomonas aeruginosa 101885 assessed as fold change in doxycycline MIC at 9.8 uM incubated for 18 hrs in presence of doxycycline by broth microdilution assay relative to control; format: functional
Pseudomonas aeruginosa [21] = assay: Potentiation of doxycycline-induced antibacterial activity against Pseudomonas aeruginosa 91433 assessed as fold change in doxycycline MIC at 9.8 uM incubated for 18 hrs in presence of doxycycline by broth microdilution assay relative to control; format: functional
Pseudomonas aeruginosa [22] = assay: Potentiation of chloramphenicol-induced antibacterial activity against Pseudomonas aeruginosa 260-97103 assessed as fold change in chloramphenicol MIC at 9.8 uM incubated for 18 hrs in presence of chloramphenicol by broth microdilution assay relative to control; format: functional
HEK293 = assay: Cytotoxicity against human HEK293 cells assessed as cell viability at 50 uM incubated for 48 hrs in presence of chloramphenicol by prestoblue assay; format: cell-based; details: hek293, 48 h
Pseudomonas aeruginosa [23] = assay: Potentiation of chloramphenicol-induced bactericidal activity against Pseudomonas aeruginosa PAO1 assessed as reduction in bacterial colonies incubated for >= 24 hrs in LB medium in presence of chloramphenicol followed by plating on agar plate and measured after 20 hrs by time-kill assay; format: functional, organism-based; details: dose 4.9-9.8 µM, time hrs >=44
Enterobacter cloacae = assay: Potentiation of doxycycline-induced antibacterial activity against Enterobacter cloacae ATCC 117029 assessed as fold change in doxycycline MIC at 9.8 uM incubated for 18 hrs in presence of doxycycline by broth microdilution assay relative to control; format: functional
Pseudomonas aeruginosa [24] = assay: Potentiation of doxycycline-induced antibacterial activity against Pseudomonas aeruginosa 101243 assessed as fold change in doxycycline MIC at 7.6 uM incubated for 18 hrs in presence of doxycycline by broth microdilution assay relative to control; format: functional
Pseudomonas aeruginosa [25] = assay: Potentiation of doxycycline-induced antibacterial activity against Pseudomonas aeruginosa 101885 assessed as fold change in doxycycline MIC at 7.6 uM incubated for 18 hrs in presence of doxycycline by broth microdilution assay relative to control; format: functional
Escherichia coli = assay: Potentiation of doxycycline-induced antibacterial activity against Escherichia coli ATCC 25922 assessed as fold change in doxycycline MIC at 7.6 uM incubated for 18 hrs in presence of doxycycline by broth microdilution assay relative to control; format: functional
Pseudomonas aeruginosa [26] = assay: Antibacterial activity against wild type Pseudomonas aeruginosa PAO1 assessed as reduction in bacterial growth by measuring chloramphenicol MIC at 8 ug/ml incubated for 18 hrs in presence of chloramphenicol by broth microdilution assay (reference value: 32 ug/ml); format: functional; details: dose 8 µg/ml
Pseudomonas aeruginosa [27] = assay: Antibacterial activity against Pseudomonas aeruginosa 260-97103 assessed as reduction in bacterial growth by measuring doxycycline MIC at 2 ug/ml incubated for 18 hrs in presence of doxycycline by broth microdilution assay (reference value: 16 ug/ml); format: functional; details: dose 2 µg/ml

CO[C@H]1/C=C/O[C@@]2(C)Oc3c(C)c(O)c4c(O)c(c(/C=N/N5CCN(Cc6cn(CCCCCCO[C@@H]7[C@@H](O[C@H]8O[C@H](CO)[C@@H](O)[C@H](N)[C@H]8O)[C@H](N)C[C@H](N)[C@H]7O[C@H]7O[C@H](CN)[C@@H](O)C[C@H]7N)nn6)CC5)c(O)c4c3C2=O)NC(=O)/C(C)=C\C=C\[C@H](C)[C@H](O)[C@@H](C)[C@@H](O)[C@@H](C)[C@H](OC(C)=O)[C@@H]1C.Cl.Cl.Cl.Cl.Cl
survival at 75 mg/kg (Pseudomonas aeruginosa [1]): 75%
MIC (Pseudomonas aeruginosa [2]): 0.25 µg/mL
MIC (Pseudomonas aeruginosa [3]): 0.125 µg/mL
MIC (Pseudomonas aeruginosa [4]): 1 µg/mL
MIC (Pseudomonas aeruginosa [5]): 8 µg/mL
MIC (Pseudomonas aeruginosa [6]): 256 µg/mL
MIC (Pseudomonas aeruginosa [7]): 0.125 µg/mL
MIC (Pseudomonas aeruginosa [8]): 4 µg/mL
FIC (Pseudomonas aeruginosa [9]): 0.063
FIC (Pseudomonas aeruginosa [10]): 0.063
FIC (Pseudomonas aeruginosa [11]): <0.125
FIC (Pseudomonas aeruginosa [12]): <0.063
FIC (Pseudomonas aeruginosa [13]): 0.016
fractional inhibitory concentration index (FICI) (Pseudomonas aeruginosa [14]): 0.19
fractional inhibitory concentration index (FICI) (Pseudomonas aeruginosa [15]): 0.27
fold change (FC) (Pseudomonas aeruginosa [16]): 32
fold change (FC) (Pseudomonas aeruginosa [17]): 4
survival at 75 mg/kg (Pseudomonas aeruginosa [18]): 55%
fold change (FC) (Pseudomonas aeruginosa [19]): 4
fold change (FC) (Pseudomonas aeruginosa [20]): 4
fold change (FC) (Pseudomonas aeruginosa [21]): 4
fold change (FC) (Pseudomonas aeruginosa [22]): 4
Activity (HEK293): Non-Toxic
Activity (Pseudomonas aeruginosa [23]): Dose-dependent effect
fold change (FC) (Enterobacter cloacae): 0

CO[C@H]1/C=C/O[C@@]2(C)Oc3c(C)c(O)c4c(O)c(c(/C=N/N5CCN(Cc6cn(CCCCCCCCCCCCO[C@@H]7[C@@H](O[C@H]8O[C@H](CO)[C@@H](O)[C@H](N)[C@H]8O)[C@H](N)C[C@H](N)[C@H]7O[C@H]7O[C@H](CN)[C@@H](O)C[C@H]7N)nn6)CC5)c(O)c4c3C2=O)NC(=O)/C(C)=C\C=C\[C@H](C)[C@H](O)[C@@H](C)[C@@H](O)[C@@H](C)[C@H](OC(C)=O)[C@@H]1C.O=C(O)C(F)(F)F.O=C(O)C(F)(F)F.O=C(O)C(F)(F)F.O=C(O)C(F)(F)F.O=C(O)C(F)(F)F
fold change (FC) (Pseudomonas aeruginosa [24]): 4
fold change (FC) (Pseudomonas aeruginosa [25]): 4
fold change (FC) (Escherichia coli): 0

CO[C@H]1/C=C/O[C@@]2(C)Oc3c(C)c(O)c4c(O)c(c(/C=N/N5CCN(C)CC5)c(O)c4c3C2=O)NC(=O)/C(C)=C\C=C\[C@H](C)[C@H](O)[C@@H](C)[C@@H](O)[C@@H](C)[C@H](OC(C)=O)[C@@H]1C [RIFAMPIN]
MIC (Pseudomonas aeruginosa [26]): 32 µg/mL
MIC (Pseudomonas aeruginosa [27]): 16 µg/mL
